# Tests used:
# Format in all cases: functional
# [1] = system: Staphylococcus epidermidis; experiment: Antimicrobial activity against methicillin-susceptible Staphylococcus epidermidis isolated from ICU patient wound assessed as resistant isolates by broth microdilution method
# [2] = system: Staphylococcus epidermidis; experiment: Antimicrobial activity against methicillin-susceptible Staphylococcus epidermidis isolated from ICU patient blood assessed as resistant isolates by broth microdilution method
# [3] = system: Escherichia coli; experiment: Antimicrobial activity against CTX-M ESBL producing Escherichia coli isolated from ICU patient respiratory tract assessed as resistant isolates by broth microdilution method
# [4] = system: Staphylococcus aureus; experiment: Antimicrobial activity against methicillin-resistant Staphylococcus aureus isolated from ICU patient respiratory tract assessed as resistant isolates by broth microdilution method
# [5] = system: Staphylococcus aureus; experiment: Antimicrobial activity against methicillin-resistant Staphylococcus aureus isolated from ICU patient blood assessed as resistant isolates by broth microdilution method
# [6] = system: Staphylococcus epidermidis; experiment: Antimicrobial activity against methicillin-susceptible Staphylococcus epidermidis isolated from ICU patient urine assessed as resistant isolates by broth microdilution method
# [7] = system: Haemophilus influenzae; experiment: Antimicrobial activity against Haemophilus influenzae assessed as resistant isolates by broth microdilution method
# [8] = system: Staphylococcus epidermidis; experiment: Antimicrobial activity against methicillin-resistant Staphylococcus epidermidis isolated from ICU patient wound assessed as resistant isolates by broth microdilution method
# [9] = system: Pseudomonas aeruginosa; experiment: Antimicrobial activity against carbapenem-resistant Pseudomonas aeruginosa isolated from ICU patient blood assessed as resistant isolates by broth microdilution method
# [10] = system: Enterobacter cloacae; experiment: Antimicrobial activity against carbapenem-resistant Enterobacter cloacae assessed as resistant isolates by broth microdilution method
# [11] = system: Staphylococcus aureus; experiment: Antimicrobial activity against methicillin-susceptible Staphylococcus aureus assessed as resistant isolates by broth microdilution method
# [12] = system: Escherichia coli; experiment: Antimicrobial activity against CTX-M ESBL producing Escherichia coli isolated from ICU patient urine assessed as resistant isolates by broth microdilution method
# [13] = system: Streptococcus pneumoniae; experiment: Antimicrobial activity against penicillin-resistant Streptococcus pneumoniae isolated from ICU patient blood assessed as resistant isolates by broth microdilution method
# [14] = system: Staphylococcus epidermidis; experiment: Antimicrobial activity against methicillin-resistant Staphylococcus epidermidis isolated from ICU patient blood assessed as resistant isolates by broth microdilution method
# [15] = system: Streptococcus pneumoniae; experiment: Antimicrobial activity against penicillin-resistant Streptococcus pneumoniae isolated from ICU patient respiratory tract assessed as resistant isolates by broth microdilution method
# [16] = system: Staphylococcus aureus; experiment: Antimicrobial activity against methicillin-susceptible Staphylococcus aureus isolated from ICU patient respiratory tract assessed as resistant isolates by broth microdilution method
# [17] = system: Streptococcus pneumoniae; experiment: Antimicrobial activity against penicillin-resistant Streptococcus pneumoniae isolated from ICU patient wound assessed as resistant isolates by broth microdilution method
# [18] = system: Enterobacter cloacae; experiment: Antimicrobial activity against carbapenem-resistant Enterobacter cloacae isolated from ICU patient respiratory tract assessed as resistant isolates by broth microdilution method
# [19] = system: Escherichia coli; experiment: Antimicrobial activity against CTX-M ESBL producing Escherichia coli isolated from ICU patient blood assessed as resistant isolates by broth microdilution method
# [20] = system: Enterobacter cloacae; experiment: Antimicrobial activity against carbapenem-resistant Enterobacter cloacae isolated from ICU patient urine assessed as resistant isolates by broth microdilution method
# [21] = system: Staphylococcus aureus; experiment: Antimicrobial activity against methicillin-susceptible Staphylococcus aureus isolated from ICU patient urine assessed as resistant isolates by broth microdilution method
# [22] = system: Klebsiella pneumoniae; experiment: Antimicrobial activity against ESBL producing Klebsiella pneumoniae isolated from ICU patient urine assessed as resistant isolates by broth microdilution method
# [23] = system: Haemophilus influenzae; experiment: Antimicrobial activity against Haemophilus influenzae isolated from ICU patient wound assessed as resistant isolates by broth microdilution method
# [24] = system: Klebsiella pneumoniae; experiment: Antimicrobial activity against ESBL producing Klebsiella pneumoniae assessed as resistant isolates by broth microdilution method
# [25] = system: Pseudomonas aeruginosa; experiment: Antimicrobial activity against carbapenem-resistant Pseudomonas aeruginosa isolated from ICU patient wound assessed as resistant isolates by broth microdilution method
# [26] = system: Klebsiella pneumoniae; experiment: Antimicrobial activity against ESBL producing Klebsiella pneumoniae isolated from ICU patient respiratory tract assessed as resistant isolates by broth microdilution method
# [27] = system: Staphylococcus epidermidis; experiment: Antimicrobial activity against methicillin-resistant Staphylococcus epidermidis isolated from ICU patient urine assessed as resistant isolates by broth microdilution method
# [28] = system: Enterobacter cloacae; experiment: Antimicrobial activity against carbapenem-resistant Enterobacter cloacae isolated from ICU patient blood assessed as resistant isolates by broth microdilution method
# [29] = system: Staphylococcus epidermidis; experiment: Antimicrobial activity against methicillin-resistant Staphylococcus epidermidis assessed as resistant isolates by broth microdilution method
# [30] = system: Pseudomonas aeruginosa; experiment: Antimicrobial activity against carbapenem-resistant Pseudomonas aeruginosa isolated from ICU patient respiratory tract assessed as resistant isolates by broth microdilution method
# [31] = system: Staphylococcus aureus; experiment: Antimicrobial activity against methicillin-resistant Staphylococcus aureus isolated from ICU patient urine assessed as resistant isolates by broth microdilution method
# [32] = system: Staphylococcus aureus; experiment: Antimicrobial activity against methicillin-resistant Staphylococcus aureus isolated from ICU patient wound assessed as resistant isolates by broth microdilution method
# [33] = system: Pseudomonas aeruginosa; experiment: Antimicrobial activity against carbapenem-resistant Pseudomonas aeruginosa isolated from ICU patient urine assessed as resistant isolates by broth microdilution method
# [34] = system: Staphylococcus epidermidis; experiment: Antimicrobial activity against methicillin-susceptible Staphylococcus epidermidis isolated from ICU patient respiratory tract assessed as resistant isolates by broth microdilution method
# [35] = system: Staphylococcus aureus; experiment: Antimicrobial activity against methicillin-resistant Staphylococcus aureus assessed as resistant isolates by broth microdilution method
# [36] = system: Pseudomonas aeruginosa; experiment: Antimicrobial activity against carbapenem-resistant Pseudomonas aeruginosa assessed as resistant isolates by broth microdilution method
# [37] = system: Escherichia coli; experiment: Antimicrobial activity against CTX-M ESBL producing Escherichia coli assessed as resistant isolates by broth microdilution method
# [38] = system: Haemophilus influenzae; experiment: Antimicrobial activity against Haemophilus influenzae isolated from ICU patient respiratory tract assessed as resistant isolates by broth microdilution method
# [39] = system: Staphylococcus aureus; experiment: Antimicrobial activity against methicillin-susceptible Staphylococcus aureus isolated from ICU patient blood assessed as resistant isolates by broth microdilution method
# [40] = system: Klebsiella pneumoniae; experiment: Antimicrobial activity against ESBL producing Klebsiella pneumoniae isolated from ICU patient wound assessed as resistant isolates by broth microdilution method
# [41] = system: Staphylococcus epidermidis; experiment: Antimicrobial activity against methicillin-susceptible Staphylococcus epidermidis assessed as resistant isolates by broth microdilution method
# [42] = system: Escherichia coli; experiment: Antimicrobial activity against CTX-M ESBL producing Escherichia coli isolated from ICU patient wound assessed as resistant isolates by broth microdilution method
# [43] = system: Streptococcus pneumoniae; experiment: Antimicrobial activity against penicillin-resistant Streptococcus pneumoniae assessed as resistant isolates by broth microdilution method
# [44] = system: Enterobacter cloacae; experiment: Antimicrobial activity against carbapenem-resistant Enterobacter cloacae isolated from ICU patient wound assessed as resistant isolates by broth microdilution method
# [45] = system: Haemophilus influenzae; experiment: Antimicrobial activity against Haemophilus influenzae isolated from ICU patient blood assessed as resistant isolates by broth microdilution method
# [46] = system: Klebsiella pneumoniae; experiment: Antimicrobial activity against ESBL producing Klebsiella pneumoniae isolated from ICU patient blood assessed as resistant isolates by broth microdilution method
# [47] = system: Staphylococcus aureus; experiment: Antimicrobial activity against methicillin-susceptible Staphylococcus aureus isolated from ICU patient wound assessed as resistant isolates by broth microdilution method
smiles,measurement,setting,value
CO/N=C(\C(=O)N[C@@H]1C(=O)N2C(C(=O)O)=C(CSc3nc(=O)c(O)nn3C)CS[C@H]12)c1csc(N)n1 [CEFTRIAXONE],Activity,[1],25%
same,Activity,[2],1.8%
same,Activity,[3],2.5%
same,Activity,[4],100%
same,Activity,[5],100%
same,Activity,[6],0%
same,Activity,[7],0.3%
same,Activity,[8],100%
same,Activity,[9],51.5%
same,Activity,[10],13.9%
same,Activity,[11],0%
same,Activity,[12],4.2%
same,Activity,[13],0%
same,Activity,[14],100%
same,Activity,[15],0%
same,Activity,[16],0%
same,Activity,[17],0%
same,Activity,[18],10.2%
same,Activity,[19],5.5%
same,Activity,[20],25%
same,Activity,[21],0%
same,Activity,[22],0%
same,Activity,[23],0%
same,Activity,[24],0.4%
same,Activity,[25],30.2%
same,Activity,[26],0%
same,Activity,[27],100%
same,Activity,[28],29.2%
same,Activity,[29],100%
same,Activity,[30],27%
same,Activity,[31],100%
same,Activity,[32],100%
same,Activity,[33],33.3%
same,Activity,[34],0%
same,Activity,[35],100%
same,Activity,[36],30%
same,Activity,[37],3.7%
same,Activity,[38],0.3%
same,Activity,[39],0%
same,Activity,[40],3.9%
same,Activity,[41],8.1%
same,Activity,[42],1.7%
same,Activity,[43],0%
same,Activity,[44],5.9%
same,Activity,[45],0%
same,Activity,[46],0%
same,Activity,[47],0%

# — ChEMBL document CHEMBL1275409, “Antimicrobial-resistant pathogens in intensive care units in Canada: results of the Canadian National Intensive Care Unit (CAN-ICU) study, 2005-2006” (2008)
